The values that follow come from EP0727211A1, “Use of src SH2 specific compounds to treat a bone resorption disease” (SMITHKLINE BEECHAM CORPORATION, priority 1995, dated 1996).

Assay [1] relates to osteoclast mediated bone resorption. The assay can be described thus: fetal rat long bone (FRLB) assay, 45calcium release. Type of assay: cell-based, Sprague Dawley rats. Conditions: inhibition of 45calcium release from fetal rat radii and ulnae, 48 hours culture with compound, n=4. Here is the method:
4-[4-(4-Methylbenzoyl)benzoyl]phenylacetaldehyde (Compound 4) was tested for its potency to inhibit osteoclast mediated bone resorption in the fetal rat long bone (FRLB) assay as described in Raisz LG (1965) J Clin Invest 44: 103-116, Stern PH et al., (1979) Skeletal Research: An experimental Approach. New York:Academic Press, 21-59 and Votta BJ et al., (1994) Bone 15:533-538).
To perform the experiment timed-pregnant Sprague Dawley rats (Taconic Farms, Germantown, NY) were injected subcutaneously with 200 µCi of ^45CaCl2 on day 18 of gestation, housed overnight, then anesthetized with Innovar-Vet (Pittman-Moore, Mundelein, IL) and sacrificed by cervical dislocation. Fetuses were removed aseptically and radii and ulnae were dissected free of surrounding soft tissue and cartilaginous ends. The bones were cultured 18-24 hours in BGJb medium (Sigma) containing 1 mg/ml bovine serum albumin, then transferred to fresh medium and cultured for an additional 48 hours in the absence or presence of Compound 4. ^45Calcium released into the medium and total calcium in the bones were measured by liquid scintillation spectrometry. Data were expressed as the % ^45calcium released from treated bones as compared to corresponding control bones. Statistical differences were assessed by employing a one-way analysis of variance for non-paired samples. Data are presented as mean ± s.e.m., n=4. […]

Assay [2] relates to human src SH2 domain. Description: SH2 domain / pY peptide binding assay (ELISA-based, 96 well plate), src SH2. Conditions: selectivity for src SH2 versus the other SH2 domains of Tables I and II. Here is the method: (§1) The inhibitory activity of compounds at the different human SH2 domains was determined in vitro using SH2 domains expressed as fusion proteins in E. coli. The SH2 domains used herein were the human forms of the src SH2 domain, Grb2 SH2 domain, lck SH2 domain, fyn SH2 domain, SH-PTP2 SH2 domain, p85 SH2 domain and hcp SH2 domain. The fusion proteins containing the src, lck and hcp SH2 domains were expressed as the general sequence: DET1-DET2-spacer-ek-SH2, where DETI, DET2, spacer, ek and SH2 are as described below. […] Monoclonal antibodies to various epitopes of HIV-1 gp120 (or gp160) are known in the art, see, for example U.S. Patent 5,166,050. One preferred example is monoclonal antibody 178.1 (see, […] et al., J. Immunol., 143:1832-1836 (1989)), which was prepared by immunization of mice with a yeast-expressed HIV-1 gp160 molecule from strain BH10 (Ratner et al., Nature, 313:277-284 (1985)). This tag was used for detection of expression (by Western blot), for purification of the protein (by affinity chromatography), and for configuring assays in which the fusion protein was captured or immobilized using the 178.1 antibody. DET2 is a hexahistidine sequence tag (SEQ ID NO: 2) which binds to nickel-containing resins and was used for purification purposes. Spacer (SEQ ID NO: 3) was utilized to design a BamH1 restriction site at the indicated position of the construct. The term -[…] to a recognition sequence (SEQ ID NO: 4) for the enterokinase protease which provides for the optional removal of the tags from the SH2 domain, thus producing an SH2 domain that contains no extraneous amino acids. SH2 domains which contain no extraneous amino acids are preferable to tagged protein for crystallography studies. SH2 refers to the SH2 domains of different proteins. Cloning, expression and purification of human src SH2 domain containing tags and an enterokinase proteolytic cleavage site (DET1-DET2-spacer-ek-src SH2). A DNA sequence encoding protein ek-src SH2 was PCR amplified from a cDNA clone containing the human src gene (c-src SH2 DNA sequence identical to that described in […]. and Hanafusa, H, 1983 Cell 32:881-890) using the following primers: [formula] The PCR product was digested with BamHI and XbaI, followed by isolation of the digested fragment on an agarose gel. […] In that vector, the BamHI site is located between the coding regions for DET2 and SH2, and the XbaI site is located after the 3' end of the SH2 coding region. The ligation reaction was used to transform E. coli M[…]^+. […] Cells were lysed at neutral pH by sonication in the […] of lysozyme. […] After washing the column with equilibration buffer (Tris buffer pH 8 containing 0.5 M NaCl) and the same buffer containing 15 mM imidazole, the protein was eluted in highly purified form with 25 mM imidazole in equilibration buffer. […] The binding assays for the SH2 domains and pY peptides were performed in an ELISA-based 96 well plate assay. In Millipore 96 well filter plates, hydrophilic Durapore® (pore size 0.65um Cat. No. MADVN6550), was added 2 ul (50% suspension) of Protein-G Sepharose (available from Pharmacia of N.J. Cat. […] The volume was brought to 100 ul with TBS-T (tris buffered saline plus 0.05% tween-20), incubated and shaken at room trmperature for 1 hr. then washed 1x with TBS-T (4°C). 90 ul of TBS-T were then added to each well. […] The assay plates were incubated until equilibrium binding was attained (3 hr at 4°C with shaking). […] The A490 of each ELISA plate was then determined. […]

Assay [3] concerns the target human src SH2 domain (Homo sapiens, UniProt P12931). The description is as above. The protocol:
as §1

Read-outs that look alike come from different tables or passages of the source.

Sequence of human src SH2 domain (Homo sapiens, UniProt P12931) (P12931 151-248): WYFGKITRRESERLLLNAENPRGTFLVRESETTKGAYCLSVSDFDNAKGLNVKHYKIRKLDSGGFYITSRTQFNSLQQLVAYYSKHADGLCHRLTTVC

Turning to `Cc1ccc(C(=O)c2ccc(C(=O)c3ccc(CC=O)cc3)cc2)cc1` [Compound 4, 4-[4-(4-Methylbenzoyl)benzoyl]phenylacetaldehyde], the IC50 in assay [1] amounted to 19 µM.
Take `CCCCCCNC(=O)[C@H]1CC[C@H](CNC(=O)c2ccc([N+](=O)[O-])cc2)CC1` [Compound 7, 4-nitro-benzamido-trans-4-methyl-cyclohexyl-N-hexyl carboxamide]: in the assay on human src SH2 domain [2], the “binding affinity/inhibitory concentration at the src SH2 domain than at other SH2 domains” value was “greater than fifty-fold higher”. For the same compound, at human src SH2 domain [3] (Ki calculated from IC50 by the expanded equation; Table II; read-out: Src (Ki)), the Ki is 20 µM. For the same compound, the IC50 on human src SH2 domain [3] (cloned human SH2 domain fusion protein; 0.1 uM biotinylated pY peptide; Table I; read-out: Src (IC50)) amounted to 7.4 µM.
With `N[C@@H](Cc1cc(Br)c(Oc2ccc(O)c(Cc3ccc(O)nn3)c2)c(Br)c1)C(=O)O` [Compound 2, L-3,5-Dibromo-3'-(6-oxo-3(1H)-pyridazinylmethyl)-thyronine], the IC50 on human src SH2 domain [3] (read-out: Src (IC50); cloned human SH2 domain fusion protein; 0.1 uM biotinylated pY peptide; Table I) was above 300 µM. Further, the Ki on human src SH2 domain [3] (read-out: Src (Ki); Ki calculated from IC50 by the expanded equation; Table II) is above 1000 µM.
